{"source": "patent US20130251633A1", "about": "“SYSTEMS, METHODS, AND DEVICES FOR ULTRASONIC ASSESSMENT OF CANCER AND RESPONSE TO THERAPY” (The Trustees of Columbia University in the City of New York, priority 2010, published 2013)", "format_in_all_cases": "in vivo, NCR nude mice", "key": {"NGP tumors [1]": {"tested_on": "NGP tumors", "experiment": "CEUS perfusion imaging (relative microbubble perfusion), NGP tumors", "details": "for increase in mean rmp: BV-treated NGP tumors", "experimental": "(§1) The identity of the neuroblastoma cell lines NGP and SK-NEP-1 were verified by STR profiling. The cell lines were stably transfected with FUW-Luciferase plasmid and were selected and maintained in 1 mg/ml neomycin. 1×10^6 cells were injected intrarenally into 4-6 week old NCR female nude mice. The resulting xenografts were monitored for growth using bioluminescence. At a threshold corresponding to 1-2 g, tumors were randomized to control or treatment groups (cohort size 5-8 mice per modality and treatment groups). BV (0.5 mg) was administered immediately after imaging on days 0 and 3. Animals were killed by CO2 inhalation at indicated time points (at day 5 after serial imaging studies, and at days 0, 1, 3, and 5 for control and lectin perfusion analyses). At euthanasia, mice were injected with fluorescein-labeled Lycopersicon esculentum lectin (100 μg/100 μl PBS). Vasculature was fixed by infusing 1% paraformaldehyde. 40-μm sections were cut using a vibratome, and digital images subjected to computer-assisted quantitative analysis of tumor vessel architecture.\nSize-selected microbubbles described above were used for perfusion and molecular imaging. Lipid-coated, perfluorobutane-filled microbubbles were produced by mechanical agitation. For targeting, a maleimide group was included on the distal end of the polyethylene glycol group on the lipopolymer used to coat the microbubbles. Residual lipid was removed and 4.5-μm median diameter microbubbles were isolated by centrifugation. Targeted microbubbles were then conjugated to cysteine-tagged RGD (target) or RAD (control) peptides and washed again to remove residual peptide. RGD conjugation was confirmed by HPLC and MALDI-TOF. Ultrasound imaging was performed using a small-animal ultrasound scanner with a 30-MHz transducer.\nMice were anesthetized and placed on a physiological monitoring platform, and their tail veins were catheterized for injections using a 27-gauge, ½-inch butterfly catheter. The transducer was positioned at the tumor midsection, and 2-D ultrasound images were acquired using a field of view of 17×17 mm. A 50-μL bolus (2.5×10^7 microbubbles) followed by a 15-μL saline flush were injected while imaging at the maximum frame rate for respiratory gating (˜11 frames/second) and 100% power. Maximum intensity persistence (MIP) images were acquired using non-targeted RAD-microbubbles. Contrast enhancement was detected using background subtraction from reference videos acquired before the microbubble injection. […] Relative microbubble perfusion (rmp) was defined as the maximum signal enhancement and determined by regression of a monoexponential function to the time-intensity curve during microbubble uptake. […]"}, "SK-NEP-1 tumors [2]": {"tested_on": "SK-NEP-1 tumors", "experiment": "CEUS perfusion imaging (relative microbubble perfusion), SK-NEP-1 tumors", "details": "SK-NEP-1 cohorts, days 0 to 5, linear mixed-effects model", "experimental": "as §1, with “At euthanasia, mice were injected with fluorescein-labeled Lycopersicon esculentum lectin (100 μg/100 μl PBS). Vasculature was fixed by infusing 1% paraformaldehyde.” left out, “architecture. […]” for “architecture.”\nMice were anesthetized and placed on a physiological monitoring platform, and their tail veins were catheterized for injections using a 27-gauge, ½-inch butterfly catheter. […] Contrast enhancement was detected using background subtraction from reference videos acquired before the microbubble injection. […] Relative microbubble perfusion (rmp) was defined as the maximum signal enhancement and determined by regression of a monoexponential function to the time-intensity curve during microbubble uptake. […]"}, "NGP xenografts": {"tested_on": "NGP xenografts", "experiment": "Tumor 2-D cross-sectional area by ultrasound, NGP xenografts", "details": "NGP tumors, BV vs. control, 5 days", "experimental": "as §1, with “BV (0.5 mg) was administered immediately after imaging on days 0 and 3.” left out"}, "NGP tumors [3]": {"tested_on": "NGP tumors", "experiment": "Fluorescein-labeled lectin perfusion analysis of tumor vasculature, NGP tumors", "details": "BV-treated NGP tumors", "experimental": "as §1, with “At euthanasia, mice were injected with fluorescein-labeled Lycopersicon esculentum lectin (100 μg/100 μl PBS). Vasculature was fixed by infusing 1% paraformaldehyde.” left out\nQuantified changes in lectin perfusion studies of tumor vasculature were consistent with changes detected by CEUS. […]\nComputer-assisted image analysis was used to examine changes in specific vessel features. If vascular area is calculated from total pixels, large-diameter vessels contributed disproportionately to MVD as compared to fine capillaries. To more closely estimate numbers of vessels, total length can be calculated by skeletonizing images and then scoring these by computer. […]"}, "NGP tumors [4]": {"tested_on": "NGP tumors", "experiment": "Ultrasound molecular imaging with RGD-microbubbles (relative targeted microbubble adhesion, αvβ3 integrin), NGP tumors", "details": "exponential decay model, days 0-5", "experimental": "To evaluate vascular response (blood volume, perfusion, and molecular expression), two human cancer cell lines (SK-NEP and NGP) were implanted in nude mice and allowed to develop for five weeks. High-frequency ultrasound imaging of the tumors was performed at 40 MHz using a Visualsonics Vevo 770 during bolus tail-vein injections of size-selected microbubble suspensions. […] The bolus was […] and the concentration was 5×10^8 microbubbles/mL. The change in intensity of the ultrasound signal was used to determine the relative blood volume. Targeted microbubbles bearing cyclic RGD-peptides (or cyclic RAD-peptides for the control microbubbles) were used to measure the level of active angiogenesis. […]\nThe identity of the neuroblastoma cell lines NGP and SK-NEP-1 were verified by STR profiling. […] The resulting xenografts were monitored for growth using bioluminescence. […] 40-μm sections were cut using a vibratome, and digital images subjected to computer-assisted quantitative analysis of tumor vessel architecture. […]\nFor molecular ultrasound imaging, a series of lower frequency pulses was applied to destroy microbubbles in the field of view 10 minutes after microbubble injection. […] The relative targeted microbubble adhesion (rtma) was measured as the difference in the linearized grayscale pixel intensities within the ROI for targeted RGD-microbubbles, minus that for RAD-microbubbles. […]"}, "SK-NEP-1 tumors [5]": {"tested_on": "SK-NEP-1 tumors", "experiment": "Fluorescein-labeled lectin perfusion analysis of tumor vasculature, SK-NEP-1 tumors", "experimental": "as §1, with “BV (0.5 mg) was administered immediately after imaging on days 0 and 3.” left out\nAfter binarization of the images, microvessel density (MVD) was estimated by the total number of white pixels per field. The results shown in FIGS. 10A-10B are as the mean pixel count per image +SD.\nComputer-assisted image analysis was used to examine changes in specific vessel features. […] To more closely estimate numbers of vessels, total length can be calculated by skeletonizing images and then scoring these by computer. […] New vascular branches can form a dynamic and relatively VEGF-dependent element in angiogenic networks."}, "SK-NEP-1 xenografts": {"tested_on": "SK-NEP-1 xenografts", "experiment": "Tumor 2-D cross-sectional area by ultrasound, SK-NEP-1 xenografts", "experimental": "To evaluate vascular response (blood volume, perfusion, and molecular expression), two human cancer cell lines (SK-NEP and NGP) were implanted in nude mice and allowed to develop for five weeks. High-frequency ultrasound imaging of the tumors was performed at 40 MHz using a Visualsonics Vevo 770 during bolus tail-vein injections of size-selected microbubble suspensions. […] The bolus was […] and the concentration was 5×10^8 microbubbles/mL. The change in intensity of the ultrasound signal was used to determine the relative blood volume. Targeted microbubbles bearing cyclic RGD-peptides (or cyclic RAD-peptides for the control microbubbles) were used to measure the level of active angiogenesis. The mice were imaged at 0, 1, 3, and 5 days. Immediately after the imaging sessions on days 0 and 3, 0.2 cc of BV (2.5 mg/mL) was administered to the mice. After day 5, the mice were euthanized, and their tumors excised for ex vivo analysis.\nThe identity of the neuroblastoma cell lines NGP and SK-NEP-1 were verified by STR profiling. […] The resulting xenografts were monitored for growth using bioluminescence. […] 40-μm sections were cut using a vibratome, and digital images subjected to computer-assisted quantitative analysis of tumor vessel architecture.\nXenografts formed in the kidney of NCR nude mice with the human Ewing family tumor cell line SK-NEP-1 are highly sensitive to VEGF blockade therapy, while human neuroblastoma NGP cell lines are much less responsive to VEGF blockade therapy. The intrarenally implanted xenograft tumors were monitored for growth and randomly assigned to biweekly injections of anti-VEGF antibody BV or vehicle. […] To confirm the characterization of responsiveness, 2-D tumor area was measured by ultrasonography, the results of which are shown in FIG. 11.\nThe tumor 2-D cross-sectional area was determined from the ultrasound images using Visualsonics software. Area measurements of the tumor were calculated from the ultrasound images using a ROI that encompassed the hypoechoic region of the kidney (tumor tissue). […]"}, "SK-NEP-1 tumors [6]": {"tested_on": "SK-NEP-1 tumors", "experiment": "Ultrasound molecular imaging with RGD-microbubbles (relative targeted microbubble adhesion, αvβ3 integrin), SK-NEP-1 tumors", "experimental": "as §1, with “BV (0.5 mg) was administered immediately after imaging on days 0 and 3.” left out"}}}
{"substance": "bevacizumab [BV]", "values": [{"measurement": "increase in mean rmp", "setting": "NGP tumors [1]; by day 1", "result": "38±21", "unit": "%"}, {"measurement": "increase in mean rmp", "setting": "NGP tumors [1]; by day 3", "result": "57±48", "unit": "%"}, {"measurement": "increase in mean rmp", "setting": "NGP tumors [1]; by day 5", "result": "105±41", "unit": "%"}, {"measurement": "slopes of the linear regression of rmp, BV-treated vs control", "setting": "NGP tumors [1]; NGP cohorts, days 0 to 5, linear mixed-effects model", "result": "no difference"}, {"measurement": "slopes of the linear regression of rmp, BV-treated vs control", "setting": "SK-NEP-1 tumors [2]", "result": "statistically different"}, {"measurement": "tumor growth", "setting": "NGP xenografts", "result": "unaffected"}, {"measurement": "microvessel density (MVD) compared to day 0 controls", "setting": "NGP tumors [3]", "result": "did not change"}, {"measurement": "difference in rtma decay rates, BV-treated vs control", "setting": "NGP tumors [4]", "result": "no difference was observed"}, {"measurement": "decrease in microvessel density (MVD) compared to day 0 controls", "setting": "SK-NEP-1 tumors [5]; BV-treated SK-NEP-1 tumors, day 1", "result": 66, "unit": "%"}, {"measurement": "total vessel length", "setting": "SK-NEP-1 tumors [5]; SK-NEP-1, days 1, 3, 5", "result": "significantly decreased"}, {"measurement": "total vascular branch number", "setting": "SK-NEP-1 tumors [5]; SK-NEP-1, days 3 and 5", "result": "significantly decreased"}, {"measurement": "changes in tumor size", "setting": "SK-NEP-1 xenografts; SK-NEP tumor-bearing mice, 0.2 cc BV (2.5 mg/mL) on days 0 and 3", "result": "no significant changes"}, {"measurement": "change in tumor 2-D cross-sectional area (ultrasound)", "setting": "SK-NEP-1 xenografts; SK-NEP-1 mice, BV 0.5 mg on days 0 and 3, over the 5 day period", "result": "−5", "unit": "%"}, {"measurement": "tumor growth in comparison to control", "setting": "SK-NEP-1 xenografts; SK-NEP-1 xenografts, days 3 and 5", "result": "significantly arrested tumor growth"}, {"measurement": "reduction of the difference in image intensity (before/after destruction pulse)", "setting": "SK-NEP-1 tumors [6]; BV-responsive tumors, RGD microbubbles, after 3 days following treatment", "result": "> 95", "unit": "%"}, {"measurement": "decrease in mean rtma", "setting": "SK-NEP-1 tumors [6]; BV-treated SK-NEP-1, by day 5", "result": "99±5", "unit": "%"}, {"measurement": "difference in rtma decay rates, BV-treated vs control", "setting": "SK-NEP-1 tumors [6]; SK-NEP-1, exponential decay model, days 0-5", "result": "statistically different"}, {"measurement": "αvβ3 integrin binding of RGD-bearing microbubbles in the tumor region", "setting": "SK-NEP-1 tumors [6]; treated SK-NEP mice, three days following BV administration", "result": "significant drop"}]}
